SMILES strings stand for the structures. Starred links: 1 amine or outer side, 2 acyl side, 3 side chain; linkers in the order of their positions; H or OH if unused. Residues, ends and D or L forms follow the SMILES beside them. *: point of attachment. Glutaryl = O=C(CCCC(=O)[*:2])[*:1]; NHPr = CCCN*

This passage reports melting point results from a melting point compilation (Tetko et al.; mined from patent text by program, amines drawn as free bases though some values may be those of a salt).

As to `O=C1CCCc2c(-c3ccncc3)sc(-c3ccncc3)c21`, the melting point fell in the range of 157 to 160 °C.
On to `CCN(CC)C(=O)c1cc(C)nc([N+](=O)[O-])c1`, for which the melting point was 90 to 91 °C.
Consider `CCOCN(C(=O)CCl)c1c(OC)cccc1OC`, for which the melting point was in the range of 95 to 97 °C.
Then `CC1CCC(CCC(=O)O)(CCC(=O)O)C(=O)C1(CCC(=O)O)CCC(=O)O` (stereo not drawn), with 210 to 213 °C.
For `CCCc1nc(C)n2c(=O)[nH]nc2c1Cc1ccc(-c2ccccc2C#N)cc1`, the melting point came out at 196 °C.
Compound `COc1ccc(C(=O)Nc2ccc(C(C)(C)CNC(=O)c3nn(C)cc3Br)cc2)cc1OC` displayed a melting point of 112 to 113 °C.
`COc1ccc(S(=O)(=O)N(CC(N)=O)c2ccc(Cl)cc2Cc2c(Cl)cccc2Cl)cc1OC` returned a melting point of 195 °C.
Regarding `CCC1=Cc2cc3c(cc2C(c2ccc([N+](=O)[O-])cc2)=NN1C(C)=O)OCO3`, the melting point was in the range of 132 to 134 °C.
The compound `Cc1cccc(NC(N)=S)n1` gave a melting point of 188 to 190 °C.
Compound `O=C(Nc1ccc(/C=C/CO)c(F)c1)OCc1ccccc1` displayed a melting point of 105 to 106 °C.
`CCc1nc2c(Cl)nc(C)cc2n1Cc1ccccc1` came in with a melting point of 140 to 141 °C.
Turning to `Cc1ccc(C)c(C2C(=O)CC(C)C2=O)c1` (stereo not drawn), the melting point was in the range of 138 to 140 °C.
`CCOC(=O)C(C)C(=O)Nc1cccc(S)c1` (stereo not drawn): the melting point was 73 to 75 °C.
`CCCOc1ccccc1Nc1ncc(C(=O)O)c(=O)[nH]1` showed a melting point of 202 to 204 °C.
The compound `CC12CCC3c4ccc(O)cc4CC(Sc4ccc(O)cc4)C3C1CCC2O` (stereo not drawn) yielded a melting point of 140 to 145 °C.
Regarding `CCCCCc1c(C(C)C)nc(C(C)C)c(CO)c1-c1ccc(Cl)cc1`, the melting point lay within 83 to 85 °C.
For `CCc1ccc2ncc(CO)c(OC(C)C)c2c1`, the melting point lay in the range of 43 to 46 °C.
Regarding `CNC(=O)c1ccc(N2CCNCC2)c(F)c1`, the melting point was 174 to 193 °C.
Then `O=S(=O)(Nc1ccccc1OCc1ccc2ccccc2n1)c1ccc(Cl)cc1`, with 129 to 130 °C; and `COc1ccc(S(=O)(=O)c2c(Br)cc(CC(=O)O)cc2Br)cc1C1CCCCC1`, with 146 to 150 °C.
In turn, `CC(C)(C)OC(=O)Cn1cc(C[C@@H](N)C(=O)O)c2ccccc21` showed a melting point of 260 °C.
As for `O=C(NCCOCCO[N+](=O)[O-])c1cncs1`, the melting point lay within 63 to 65 °C.
Compound `N=C(NO)c1cnc(Cl)c(Cl)c1` gave a melting point of 182 to 184 °C.
Consider `CCc1c(-c2ccc(OCc3ccccc3)cc2)c2c3c(c4c(OCc5ccccc5)ccc1n42)C(=O)OC3=O`, for which the melting point was in the range of 229 to 231 °C.
Take `CC(=O)OC(CN(Cc1ccccc1)Cc1ccccc1)c1ccc2c(c1)CCN2C(C)=O` (stereo not drawn): the melting point was in the range of 91 to 92 °C.
On to `CCOC(=O)NN(C)c1ccc(-c2ccccc2)nn1`, for which the melting point was in the range of 129 to 130 °C.
For the compound `O=C(O)Cc1ccc2nc(Nc3ccccc3)oc2c1`, the melting point lay in the range of 222 to 223 °C.
Next, `O=[N+]([O-])Cc1cccc(OCc2ccccc2)c1`: 55 to 56 °C.
For the compound `N#CCC(=O)N(N)c1c(Cl)cc(Cl)cc1Cl`, the melting point fell in the range of 166 to 168 °C.
Then `Cc1nc(N)c2nc(C)n(CC3(O)CCC3)c2c1C`, with above 250 °C; and `CN1C(=O)CC[C@]2(C)c3ccc(-c4ccc(O)c(C=O)c4)cc3CC[C@@H]12`, with 184 to 187 °C; and `COC(=O)c1cc2c(nc1C1=NC(C)(C(C)C)C(=O)N1)CCOC2` (stereo not drawn), with 208 to 220 °C.
Compound `COc1c(Br)cc2c3c(cccc13)C(=O)N(O)C2=O` registered a melting point of 223 to 227 °C.
Compound `O=C(O)CCCCCCCCCCCCCCCCC(=O)n1nnc2ccccc21` returned a melting point of 105 °C.
`CC(CCN(C)C1CCC(c2ccc3[nH]c(=O)oc3c2)CC1)c1ccccc1` (stereo not drawn) registered a melting point of 61 to 70 °C.
`CC(C)n1nc(C(=O)C(=O)c2ccccc2)ccc1=O`: the melting point fell in the range of 71 to 73 °C.
The compound `CC(=O)S[C@H]1CC[C@H](/C=C/C=C/c2ccc(C(F)(F)F)cc2)CC1` registered a melting point of 113 to 115 °C.
Next, `CC1=C(C(=O)OC(C)(C)C)C(c2cccc(F)c2)C(C(=O)OC(C)(C)C)=C(C)N1`: 178 to 179 °C; `Cc1nnc(CNC(=O)CNC(=O)CN)n1-c1ccc(Cl)cc1C(=O)c1ccccc1Cl`: 60 to 65 °C; `Cc1nc2cc(-c3cccc(C=C4SC(=O)NC4=O)c3)cc(C34CC5CC(CC(C5)C3)C4)c2o1`: 355 to 358 °C.
Then `O=C1C(Cl)=C(C2CCCCC2)C(=O)c2ccccc21`, with 150 to 151 °C; and `Cc1ccc(CC(CC(=O)N2CC3CC=CCC3C2)C(=O)O)cc1` (stereo not drawn), with 140 to 141 °C; and `O=C(CCCCl)Nc1ccc2c(c1NC(=O)CCCCl)C(=O)c1ccccc1C2=O`, with 154 to 155 °C.
The compound `CCCCCC1CCc2cc(C(N)=O)ccc2C1` (stereo not drawn) showed a melting point of 166 to 168 °C.
Next, `CCn1cc(C(=O)O)c(=O)c2cc(Cl)c(N3CCN(Cc4ccccc4)CC3)cc21`: 228 °C; `Cc1c(-c2ccc3c(c2)NC(=O)C(C)O3)nc2ccccn12` (stereo not drawn): 216 to 217 °C.
In turn, `CCOC(=O)C(=NO)C(=O)c1ccc(Br)cc1` came in with a melting point of 149 °C.
Next, `COC(=O)c1cc2ccc(C(=O)NC(CO[Si](C)(C)C(C)(C)C)CO[Si](C)(C)C(C)(C)C)cc2[nH]1`: 127 to 129 °C; `OCc1ccccc1-c1ccc2nc(-c3ccc(Cl)cc3)cn2c1`: 164 to 166 °C; `O=C(O)C1C2CNCC21` (stereo not drawn): 101 to 102 °C.
`CCOC(=O)c1c(O)c2cccnc2n(Cc2ccc(Cl)cc2)c1=O` gave a melting point of 142 to 144 °C.
As for `Cn1cc(Br)nc(Nc2cnn(C3CC3)c2)c1=O`, the melting point was in the range of 228 to 230 °C.
Then `CC(=O)NC[C@H]1CN(c2ccc(N3CCC(N)(C#N)CC3)c(F)c2)C(=O)O1`, with 94 to 96 °C; and `Cc1oc(-c2ccccc2)nc1COc1ccc(CON=C(CCCCC(=O)NS(C)(=O)=O)c2ccccc2)cc1`, with 130 to 132 °C.
Take `Cc1cc(C#C[Si](C(C)C)(C(C)C)C(C)C)n(-c2ccc([N+](=O)[O-])cc2)n1`: the melting point fell in the range of 71 to 73 °C.
In turn, `COc1ccc(C2=NN(C3CCNCC3)C(=O)C(C)(C)C2)cc1OC` came in with a melting point of 126 to 128 °C.
For the compound `O=C(O)CNC(=O)CSCCCCc1ccc2c(c1)OCO2`, the melting point fell in the range of 95 to 96 °C.
For the compound `COc1ccc2c(c1)C=C(C(=O)N1CCN(C(=O)c3cc(OC)c(OC)c(OC)c3)CC1)CCO2`, the melting point lay in the range of 110 to 115 °C.
The compound `COCc1cnc(NC(=O)C(Cc2ccc(F)cc2)c2ccc(S(C)(=O)=O)cc2)cn1` (stereo not drawn) had a melting point of 69 to 82.3 °C.
The compound `CN1CCN(c2cccc3c2C[C@H](NC(=O)c2ccc(Cl)cc2)CC3)CC1` returned a melting point of 204 to 205 °C.
`O=C(Nc1ccc(N2CCCCC2)cc1)N(C[C@H]1CC[C@H](CN(C(=O)Nc2ccc(N3CCCCC3)cc2)C2CCCCCC2)CC1)C1CCCCCC1` showed a melting point of 175 to 178 °C.
The compound `CCCNC(=O)C1CCCN1C(=O)C(C)NC(=O)C(C)NC(=O)CCCC(=O)O` (stereo not drawn) (Glutaryl-Ala-Ala-Pro-NHPr; configuration not given here) displayed a melting point of 131 to 134 °C.
In turn, `Nc1c(CC(=O)O)cccc1C(=O)c1ccc(F)cc1` had a melting point of 136 to 137 °C.
